From article PMC4685510, “A Cell Biologist’s Field Guide to Aurora Kinase Inhibitors” (Frontiers in Oncology, 2015) come the findings set out here.

Each structure is given as a SMILES string.

Assay in all cases: biochemical
What all share (assay type): biochemical

Experiment [1] addresses 363 human kinases (including Aurora A/B/C) (Homo sapiens, UniProt P17252). The settings on record: PKCa; for remaining activity at 0.5 µM / remaining activity at 0.1 µM: read-out: % Enzyme Activity (relative to DMSO controls); for remaining activity at 0.1 µM: 100 nM.
From the text: (§1) However, the Aurora A/B selectivity ratios derived from our in vitro and in vivo data can be compared to prioritize inhibitors.
Experiment [2] addresses 363 human kinases (including Aurora A/B/C) (Homo sapiens, UniProt P17948). The settings on record: FLT1/VEGFR1, [ATP] 2.5 µM; for remaining activity at 0.5 µM / remaining activity at 0.1 µM: read-out: % Enzyme Activity (relative to DMSO controls); for remaining activity at 0.1 µM: 100 nM.
From the text: as §1
For experiment [3], the target named is 363 human kinases (including Aurora A/B/C) (Homo sapiens, UniProt P49840). The settings on record: GSK3a; for remaining activity at 0.5 µM / remaining activity at 0.1 µM: read-out: % Enzyme Activity (relative to DMSO controls); for remaining activity at 0.1 µM: 100 nM.
From the text: as §1
In experiment [4] the target is T1, 363 human kinases (including Aurora A/B/C) (Homo sapiens, UniProt Q12851).
T1 sequence (Q12851 1-820): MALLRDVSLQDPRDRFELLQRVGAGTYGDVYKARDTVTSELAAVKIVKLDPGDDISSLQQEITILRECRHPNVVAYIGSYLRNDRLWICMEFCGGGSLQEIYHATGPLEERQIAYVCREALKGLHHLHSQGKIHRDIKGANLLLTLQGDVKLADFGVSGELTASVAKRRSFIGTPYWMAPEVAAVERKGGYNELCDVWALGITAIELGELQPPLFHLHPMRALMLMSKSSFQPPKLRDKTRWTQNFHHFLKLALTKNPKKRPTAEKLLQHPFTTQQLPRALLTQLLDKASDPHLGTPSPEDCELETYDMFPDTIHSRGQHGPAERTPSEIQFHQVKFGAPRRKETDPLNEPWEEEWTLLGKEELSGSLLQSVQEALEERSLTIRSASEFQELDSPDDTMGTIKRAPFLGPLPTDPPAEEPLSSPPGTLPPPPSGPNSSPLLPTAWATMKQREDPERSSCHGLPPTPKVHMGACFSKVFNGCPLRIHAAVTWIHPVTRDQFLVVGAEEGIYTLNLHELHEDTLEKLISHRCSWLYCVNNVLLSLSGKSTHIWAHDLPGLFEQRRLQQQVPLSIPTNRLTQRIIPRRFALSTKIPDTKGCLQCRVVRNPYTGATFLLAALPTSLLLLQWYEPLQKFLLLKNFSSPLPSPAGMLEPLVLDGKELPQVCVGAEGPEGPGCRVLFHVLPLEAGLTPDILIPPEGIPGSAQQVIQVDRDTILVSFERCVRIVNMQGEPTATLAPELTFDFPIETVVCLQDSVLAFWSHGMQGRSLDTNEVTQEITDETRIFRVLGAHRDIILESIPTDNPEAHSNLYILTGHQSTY
The settings on record: GCK/MAP4K2; for remaining activity at 0.5 µM / remaining activity at 0.1 µM: read-out: % Enzyme Activity (relative to DMSO controls); for remaining activity at 0.1 µM: 100 nM.
From the text: as §1

For experiment [5], the target named is 363 human kinases (including Aurora A/B/C) (Homo sapiens, UniProt Q52WX2). The settings on record: SBK1; for remaining activity at 0.5 µM / remaining activity at 0.1 µM: read-out: % Enzyme Activity (relative to DMSO controls); for remaining activity at 0.1 µM: 100 nM.
From the text: as §1
The target of experiment [6] is 363 human kinases (including Aurora A/B/C) (Homo sapiens, UniProt Q7KZI7). To be noted: MARK2/PAR-1Ba; for remaining activity at 0.5 µM / remaining activity at 0.1 µM: read-out: % Enzyme Activity (relative to DMSO controls); for remaining activity at 0.1 µM: 100 nM.
From the text: as §1
In experiment [7] the target is T2, 363 human kinases (including Aurora A/B/C) (Homo sapiens, UniProt Q8IWQ3).
T2 sequence (Q8IWQ3 1-736): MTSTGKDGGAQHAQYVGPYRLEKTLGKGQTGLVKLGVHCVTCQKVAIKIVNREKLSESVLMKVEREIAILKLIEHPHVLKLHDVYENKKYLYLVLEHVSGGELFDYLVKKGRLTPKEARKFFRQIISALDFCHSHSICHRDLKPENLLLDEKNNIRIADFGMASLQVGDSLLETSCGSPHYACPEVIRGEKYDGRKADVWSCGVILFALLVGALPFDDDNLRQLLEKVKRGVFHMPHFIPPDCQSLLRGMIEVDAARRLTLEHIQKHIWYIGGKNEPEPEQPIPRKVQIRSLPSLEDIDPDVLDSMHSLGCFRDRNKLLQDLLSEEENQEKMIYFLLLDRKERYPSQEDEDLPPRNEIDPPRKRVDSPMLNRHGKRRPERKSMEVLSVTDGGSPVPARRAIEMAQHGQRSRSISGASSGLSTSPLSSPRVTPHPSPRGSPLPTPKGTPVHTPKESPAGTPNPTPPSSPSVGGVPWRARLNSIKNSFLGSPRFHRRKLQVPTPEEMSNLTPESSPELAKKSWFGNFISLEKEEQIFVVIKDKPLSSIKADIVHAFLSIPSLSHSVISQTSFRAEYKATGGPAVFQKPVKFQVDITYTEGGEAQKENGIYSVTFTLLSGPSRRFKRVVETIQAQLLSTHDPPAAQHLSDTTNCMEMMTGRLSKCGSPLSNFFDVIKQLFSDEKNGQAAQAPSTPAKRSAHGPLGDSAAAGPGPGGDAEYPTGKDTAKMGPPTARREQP
To be noted: BRSK2, [ATP] 50 µM; for remaining activity at 0.5 µM / remaining activity at 0.1 µM: read-out: % Enzyme Activity (relative to DMSO controls); for remaining activity at 0.1 µM: 100 nM.
From the text: as §1

For experiment [8], the target named is 363 human kinases (including Aurora A/B/C) (Homo sapiens, UniProt Q8IY84). To be noted: NIM1; for remaining activity at 0.5 µM / remaining activity at 0.1 µM: read-out: % Enzyme Activity (relative to DMSO controls); for remaining activity at 0.1 µM: 100 nM.
From the text: as §1
The target of experiment [9] is T3, 363 human kinases (including Aurora A/B/C) (Homo sapiens, UniProt Q8NG66).
T3 sequence (Q8NG66 1-645): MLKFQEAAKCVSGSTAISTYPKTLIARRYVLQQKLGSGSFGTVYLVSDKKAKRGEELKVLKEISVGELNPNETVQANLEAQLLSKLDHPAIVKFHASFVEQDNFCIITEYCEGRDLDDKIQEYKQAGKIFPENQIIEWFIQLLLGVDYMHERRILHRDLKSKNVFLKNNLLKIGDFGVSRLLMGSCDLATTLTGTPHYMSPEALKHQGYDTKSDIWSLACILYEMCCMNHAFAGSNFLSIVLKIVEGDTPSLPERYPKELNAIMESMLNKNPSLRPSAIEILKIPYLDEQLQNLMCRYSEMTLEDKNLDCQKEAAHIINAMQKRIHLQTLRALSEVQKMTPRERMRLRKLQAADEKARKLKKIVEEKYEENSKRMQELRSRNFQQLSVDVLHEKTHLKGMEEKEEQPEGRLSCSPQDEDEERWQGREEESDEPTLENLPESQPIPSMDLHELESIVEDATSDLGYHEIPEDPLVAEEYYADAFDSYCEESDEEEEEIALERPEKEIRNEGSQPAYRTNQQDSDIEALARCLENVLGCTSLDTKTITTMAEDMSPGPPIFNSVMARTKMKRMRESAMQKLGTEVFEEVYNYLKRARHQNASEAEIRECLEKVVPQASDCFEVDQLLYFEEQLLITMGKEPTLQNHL
The settings on record: NEK11; for remaining activity at 0.5 µM / remaining activity at 0.1 µM: read-out: % Enzyme Activity (relative to DMSO controls); for remaining activity at 0.1 µM: 100 nM.
From the text: as §1

363 human kinases (including Aurora A/B/C) (Homo sapiens, UniProt Q8IY84), sequence (Q8IY84 whole entry): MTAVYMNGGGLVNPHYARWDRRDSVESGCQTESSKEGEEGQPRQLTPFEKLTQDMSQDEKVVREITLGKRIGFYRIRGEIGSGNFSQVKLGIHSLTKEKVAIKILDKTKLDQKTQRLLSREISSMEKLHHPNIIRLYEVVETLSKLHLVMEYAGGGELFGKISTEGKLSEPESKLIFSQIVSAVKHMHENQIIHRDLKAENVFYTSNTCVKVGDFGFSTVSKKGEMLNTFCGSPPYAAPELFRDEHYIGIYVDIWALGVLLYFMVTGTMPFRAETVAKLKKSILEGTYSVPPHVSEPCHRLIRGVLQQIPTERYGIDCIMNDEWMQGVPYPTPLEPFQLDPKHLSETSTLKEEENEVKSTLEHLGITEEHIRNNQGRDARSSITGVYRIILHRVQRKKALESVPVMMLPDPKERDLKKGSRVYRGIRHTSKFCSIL
363 human kinases (including Aurora A/B/C) (Homo sapiens, UniProt P17948), sequence (P17948 27-1338): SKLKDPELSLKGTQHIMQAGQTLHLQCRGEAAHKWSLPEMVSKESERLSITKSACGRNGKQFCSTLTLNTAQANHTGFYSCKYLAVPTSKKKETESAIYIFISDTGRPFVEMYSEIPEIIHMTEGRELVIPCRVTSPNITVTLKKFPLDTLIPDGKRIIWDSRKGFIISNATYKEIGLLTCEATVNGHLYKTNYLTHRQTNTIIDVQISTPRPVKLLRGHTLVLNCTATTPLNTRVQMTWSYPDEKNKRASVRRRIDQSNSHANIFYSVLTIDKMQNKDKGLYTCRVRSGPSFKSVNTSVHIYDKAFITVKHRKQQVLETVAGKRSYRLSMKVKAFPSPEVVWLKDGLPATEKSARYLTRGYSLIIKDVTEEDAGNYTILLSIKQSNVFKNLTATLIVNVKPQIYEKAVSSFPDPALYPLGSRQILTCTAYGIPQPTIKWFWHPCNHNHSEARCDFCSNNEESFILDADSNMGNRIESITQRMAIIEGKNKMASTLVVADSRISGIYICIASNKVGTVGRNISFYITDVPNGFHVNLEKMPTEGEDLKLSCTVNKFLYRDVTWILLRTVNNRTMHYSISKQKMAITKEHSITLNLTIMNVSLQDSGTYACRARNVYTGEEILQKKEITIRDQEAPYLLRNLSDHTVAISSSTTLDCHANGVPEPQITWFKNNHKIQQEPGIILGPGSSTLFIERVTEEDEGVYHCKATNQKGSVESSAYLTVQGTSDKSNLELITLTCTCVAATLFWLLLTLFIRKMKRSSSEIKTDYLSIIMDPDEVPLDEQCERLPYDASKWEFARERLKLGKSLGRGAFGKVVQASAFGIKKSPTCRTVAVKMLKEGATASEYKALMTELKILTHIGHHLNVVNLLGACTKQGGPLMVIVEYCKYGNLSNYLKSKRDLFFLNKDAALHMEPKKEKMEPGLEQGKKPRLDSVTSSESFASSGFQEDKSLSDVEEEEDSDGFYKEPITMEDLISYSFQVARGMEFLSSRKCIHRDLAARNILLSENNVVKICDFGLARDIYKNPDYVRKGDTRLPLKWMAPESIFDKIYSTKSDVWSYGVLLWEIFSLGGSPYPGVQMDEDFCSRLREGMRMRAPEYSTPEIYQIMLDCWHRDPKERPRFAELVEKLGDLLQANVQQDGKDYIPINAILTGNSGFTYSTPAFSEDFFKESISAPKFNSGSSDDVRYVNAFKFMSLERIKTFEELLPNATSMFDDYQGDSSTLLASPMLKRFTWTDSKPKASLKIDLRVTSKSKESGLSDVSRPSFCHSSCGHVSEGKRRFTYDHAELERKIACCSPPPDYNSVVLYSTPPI
363 human kinases (including Aurora A/B/C) (Homo sapiens, UniProt Q7KZI7), sequence (Q7KZI7 whole entry): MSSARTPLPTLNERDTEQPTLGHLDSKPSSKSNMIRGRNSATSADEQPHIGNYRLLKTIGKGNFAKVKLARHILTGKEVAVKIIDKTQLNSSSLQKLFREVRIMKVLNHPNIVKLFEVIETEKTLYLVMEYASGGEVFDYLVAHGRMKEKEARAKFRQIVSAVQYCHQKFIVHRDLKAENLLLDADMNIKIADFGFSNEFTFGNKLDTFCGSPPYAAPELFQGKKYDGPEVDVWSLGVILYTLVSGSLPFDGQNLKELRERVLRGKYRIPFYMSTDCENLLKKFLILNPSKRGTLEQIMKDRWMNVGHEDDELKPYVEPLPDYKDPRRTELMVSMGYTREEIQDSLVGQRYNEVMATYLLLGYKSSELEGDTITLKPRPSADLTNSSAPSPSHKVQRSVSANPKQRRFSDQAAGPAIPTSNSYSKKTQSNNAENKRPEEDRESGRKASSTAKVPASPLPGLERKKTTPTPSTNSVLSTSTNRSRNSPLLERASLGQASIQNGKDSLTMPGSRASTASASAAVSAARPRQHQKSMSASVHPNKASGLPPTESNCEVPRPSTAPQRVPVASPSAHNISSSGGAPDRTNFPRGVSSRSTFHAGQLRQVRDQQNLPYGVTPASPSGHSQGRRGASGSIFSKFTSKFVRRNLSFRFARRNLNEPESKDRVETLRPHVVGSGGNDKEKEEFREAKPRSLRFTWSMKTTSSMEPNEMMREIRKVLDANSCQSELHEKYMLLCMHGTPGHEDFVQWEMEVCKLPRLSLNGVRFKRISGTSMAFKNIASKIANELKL
363 human kinases (including Aurora A/B/C) (Homo sapiens, UniProt Q52WX2), sequence (Q52WX2 whole entry): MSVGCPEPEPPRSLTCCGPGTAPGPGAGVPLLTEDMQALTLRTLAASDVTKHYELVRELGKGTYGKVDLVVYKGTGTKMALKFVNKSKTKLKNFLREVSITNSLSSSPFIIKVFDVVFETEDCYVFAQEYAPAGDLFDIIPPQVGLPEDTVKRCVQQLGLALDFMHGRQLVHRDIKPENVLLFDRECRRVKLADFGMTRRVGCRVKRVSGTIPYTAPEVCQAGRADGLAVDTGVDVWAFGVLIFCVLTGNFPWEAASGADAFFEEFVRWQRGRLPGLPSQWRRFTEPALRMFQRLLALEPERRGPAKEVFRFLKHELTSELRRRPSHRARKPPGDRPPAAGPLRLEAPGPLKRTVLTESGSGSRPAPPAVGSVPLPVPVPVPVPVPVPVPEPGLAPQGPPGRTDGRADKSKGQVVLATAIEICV
363 human kinases (including Aurora A/B/C) (Homo sapiens, UniProt P49840), sequence (P49840 whole entry): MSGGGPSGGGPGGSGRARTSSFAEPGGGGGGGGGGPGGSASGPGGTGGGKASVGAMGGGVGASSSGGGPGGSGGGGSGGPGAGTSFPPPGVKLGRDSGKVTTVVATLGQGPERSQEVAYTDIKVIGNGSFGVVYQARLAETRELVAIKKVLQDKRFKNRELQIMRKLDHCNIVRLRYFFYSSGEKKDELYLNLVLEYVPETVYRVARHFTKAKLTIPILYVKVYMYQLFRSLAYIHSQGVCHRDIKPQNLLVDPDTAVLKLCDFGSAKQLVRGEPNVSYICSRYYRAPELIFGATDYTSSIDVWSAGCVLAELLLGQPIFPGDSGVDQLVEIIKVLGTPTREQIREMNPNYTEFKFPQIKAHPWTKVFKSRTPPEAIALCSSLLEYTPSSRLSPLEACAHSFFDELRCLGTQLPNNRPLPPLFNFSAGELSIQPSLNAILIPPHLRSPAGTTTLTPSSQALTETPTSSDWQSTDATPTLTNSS

With `O=C(c1cccc(Cl)c1F)N1CCN(Cc2cccc(Nc3nccs3)n2)CC1` [MK-8745], the “% Enzyme Activity (relative to DMSO controls)” value worked out at 92.64% in experiment [1] (500 nM); 90.99% in experiment [2] (500 nM); 21.35% in experiment [3] (500 nM); 91.89% in experiment [4] (500 nM); 95.86% in experiment [5] (500 nM); 103.22% in experiment [6] (500 nM). The entries for the “% Enzyme Activity (relative to DMSO controls)” value in experiment [7] (500 nM), in experiment [8] (500 nM) and in [9] (500 nM) were 107.67%, 97.14% and 75.49%, respectively. Moreover, the remaining activity at 0.5 µM in [1] (500 nM) is 95.4%; in experiment [2] (500 nM), 93.4%; in experiment [3] (500 nM) it was 23%; in experiment [4] (500 nM), 93.7%; in [5] (500 nM), 96.4%; in [6] (500 nM), 104%. In addition, the values for the remaining activity at 0.5 µM in [7] (500 nM), in experiment [8] (500 nM) and in experiment [9] (500 nM) were 109%, 97.2% and 76.6%, respectively.

Regarding `CCn1cc(-c2ccnc3[nH]c(-c4cccc(CN(C)C)c4)cc23)c(-c2ccc(NC(=O)N(C)C)cc2)n1` [GSK1070916], the remaining activity at 0.1 µM in [1] was 99.6%; in [2] it was 64.4%; in experiment [3], 99%; in experiment [4], 91.1%; in experiment [5] it was 101%; in [6] it was 96.9%. Further, the remaining activity at 0.1 µM was 88.4% in experiment [7], 94.8% in experiment [8] and 77.7% in experiment [9].

Take `O=C(O)[C@]1(Cc2cccc(Nc3nccs3)n2)CC[C@@H](Oc2cccc(Cl)c2F)CC1` [MK-5108]: the remaining activity at 0.1 µM in experiment [1] was 69.8%; in experiment [2], 58.4%; in [3] it was 32.5%; in [4] it was 97.2%; in experiment [5], 102%; in experiment [6], 96.8%. Further, the values for the remaining activity at 0.1 µM in experiment [7], in [8] and in experiment [9] were 92.7%, 96.8% and 86.5%, respectively. In addition, the remaining activity at 0.5 µM in [1] (500 nM) is 33.2%; in experiment [2] (500 nM), 29.5%; in experiment [3] (500 nM) it was 24.7%; in [4] (500 nM), 69.4%; in experiment [5] (500 nM) it was 96.3%; in experiment [6] (500 nM), 97.8%. Moreover, the figures for the remaining activity at 0.5 µM in experiment [7] (500 nM), in experiment [8] (500 nM) and in experiment [9] (500 nM) were 78.7%, 96.4% and 73.9%, respectively.
